Results published in paper PMC5218480 (PLoS ONE, 2017).

Test system: MV-4-11 cells
Experiment: Gene expression microarray analysis (Affymetrix PrimeView) and GSEA
Format: cell-based, human
Parameters: RFU PODN (11730768_x_at) / Fold change /veh PODN (11730768_x_at) / RFU LINC00158 (11744669_a_at) / Fold change /veh LINC00158 (11744669_a_at) / RFU DUSP10 (11751237_a_at) / Fold change /veh DUSP10 (11751237_a_at) / RFU ID3 (11757404_x_at) / Fold change /veh ID3 (11757404_x_at) / RFU PLEKHG5 (11737974_s_at) / Fold change /veh PLEKHG5 (11737974_s_at) / RFU LRRC4B (11730491_at) / Fold change /veh LRRC4B (11730491_at) / RFU GIMAP4 (11747438_a_at) / Fold change /veh GIMAP4 (11747438_a_at) / RFU KRT8 (11758183_x_at) / Fold change /veh KRT8 (11758183_x_at) / RFU CNN1 (11734310_a_at) / Fold change /veh CNN1 (11734310_a_at) / RFU VPS37D (11726825_at) / Fold change /veh VPS37D (11726825_at) / RFU C10orf10 (11716522_x_at) / Fold change /veh C10orf10 (11716522_x_at) / RFU KIR2DL2 /// KIR2DL4 /// KIR2DL5A /// KIR2DL5B /// KIR2DS1 /// KIR2DS2 /// KIR2DS3 /// KIR2DS4 /// KIR3DL3 /// KIR3DL3 /// KIR3DS1 (11738374_at) / Fold change /veh KIR2DL2 /// KIR2DL4 /// KIR2DL5A /// KIR2DL5B /// KIR2DS1 /// KIR2DS2 /// KIR2DS3 /// KIR2DS4 /// KIR3DL3 /// KIR3DL3 /// KIR3DS1 (11738374_at) / RFU C1QL1 (11718748_at) / Fold change /veh C1QL1 (11718748_at) / RFU TMPRSS4 (11747572_a_at) / Fold change /veh TMPRSS4 (11747572_a_at) / RFU HAMP (11756126_x_at) / Fold change /veh HAMP (11756126_x_at) / RFU RNFT2 (11725882_a_at) / Fold change /veh RNFT2 (11725882_a_at) / RFU NR4A2 (11747474_a_at) / Fold change /veh NR4A2 (11747474_a_at) / RFU ABCC12 (11746883_a_at) / Fold change /veh ABCC12 (11746883_a_at) / RFU TMEM136 (11760407_x_at) / Fold change /veh TMEM136 (11760407_x_at) / RFU CLDN22 /// WWC2 (11732394_at) / Fold change /veh CLDN22 /// WWC2 (11732394_at) / RFU HLA-DPB1 (11760878_x_at) / Fold change /veh HLA-DPB1 (11760878_x_at) / RFU SPINT1 (11716480_a_at) / Fold change /veh SPINT1 (11716480_a_at) / RFU GAP43 (11754022_s_at) / Fold change /veh GAP43 (11754022_s_at) / RFU A4GNT (11735810_at) / Fold change /veh A4GNT (11735810_at) / RFU PRB3 (11715151_x_at) / Fold change /veh PRB3 (11715151_x_at) / RFU TUBB4B (11761932_at) / Fold change /veh TUBB4B (11761932_at) / RFU CAPN14 (11732068_a_at) / Fold change /veh CAPN14 (11732068_a_at) / RFU TMCC2 (11721928_a_at) / Fold change /veh TMCC2 (11721928_a_at) / RFU IRGQ (11745062_a_at) / Fold change /veh IRGQ (11745062_a_at) / RFU FAM174B (11720279_a_at) / Fold change /veh FAM174B (11720279_a_at) / RFU TMPRSS4 (11748680_a_at) / Fold change /veh TMPRSS4 (11748680_a_at) / RFU FAM212B (11763350_a_at) / Fold change /veh FAM212B (11763350_a_at) / RFU PLEKHG5 (11743358_a_at) / Fold change /veh PLEKHG5 (11743358_a_at) / RFU ZSCAN30 (11745921_a_at) / Fold change /veh ZSCAN30 (11745921_a_at) / RFU CMKLR1 (11741424_a_at) / Fold change /veh CMKLR1 (11741424_a_at) / RFU LOC101060620 /// MAPK8IP1 (11723275_at) / Fold change /veh LOC101060620 /// MAPK8IP1 (11723275_at) / RFU SPTSSB (11747773_x_at) / Fold change /veh SPTSSB (11747773_x_at) / RFU PRSS12 (11739890_at) / Fold change /veh PRSS12 (11739890_at) / RFU BIN1 (11741810_x_at) / Fold change /veh BIN1 (11741810_x_at) / RFU WNT11 (11732464_a_at) / Fold change /veh WNT11 (11732464_a_at) / RFU C10orf10 (11716521_a_at) / Fold change /veh C10orf10 (11716521_a_at) / RFU C5orf56 (11738089_at) / Fold change /veh C5orf56 (11738089_at) / RFU CYB561 (11721691_x_at) / Fold change /veh CYB561 (11721691_x_at) / RFU ANKRD19P (11752326_a_at) / Fold change /veh ANKRD19P (11752326_a_at) / RFU OR2T12 /// OR2T33 /// OR2T8 (11738714_s_at) / Fold change /veh OR2T12 /// OR2T33 /// OR2T8 (11738714_s_at) / RFU VCAN (11748164_a_at) / Fold change /veh VCAN (11748164_a_at) / RFU JSRP1 (11732532_at) / Fold change /veh JSRP1 (11732532_at) / RFU KRTAP10-11 (11738290_x_at) / Fold change /veh KRTAP10-11 (11738290_x_at) / RFU MYO3A (11730013_a_at) / Fold change /veh MYO3A (11730013_a_at) / RFU EBF3 (11725865_a_at) / Fold change /veh EBF3 (11725865_a_at) / RFU CAMK2N1 (11719241_x_at) / Fold change /veh CAMK2N1 (11719241_x_at) / RFU C5orf56 (11738088_a_at) / Fold change /veh C5orf56 (11738088_a_at) / RFU OLFML3 (11715873_a_at) / Fold change /veh OLFML3 (11715873_a_at) / RFU LOC100653217 /// NTM (11731650_a_at) / Fold change /veh LOC100653217 /// NTM (11731650_a_at) / RFU MAPK11 (11762145_a_at) / Fold change /veh MAPK11 (11762145_a_at) / RFU FIZ1 (11724087_x_at) / Fold change /veh FIZ1 (11724087_x_at) / RFU OASL (11726364_x_at) / Fold change /veh OASL (11726364_x_at) / RFU SOX15 (11748057_x_at) / Fold change /veh SOX15 (11748057_x_at) / RFU CD79A (11719716_a_at) / Fold change /veh CD79A (11719716_a_at) / RFU HIST1H1D (11736915_at) / Fold change /veh HIST1H1D (11736915_at) / RFU CASKIN2 (11723855_a_at) / Fold change /veh CASKIN2 (11723855_a_at) / RFU LOC730098 (11760151_x_at) / Fold change /veh LOC730098 (11760151_x_at) / RFU OR4N2 (11742367_at) / Fold change /veh OR4N2 (11742367_at) / RFU PRRT2 (11749266_a_at) / Fold change /veh PRRT2 (11749266_a_at) / RFU SNX32 (11753110_a_at) / Fold change /veh SNX32 (11753110_a_at) / RFU CDHR5 (11726645_a_at) / Fold change /veh CDHR5 (11726645_a_at) / RFU RCAN1 (11760418_a_at) / Fold change /veh RCAN1 (11760418_a_at) / RFU FAM167A (11723789_a_at) / Fold change /veh FAM167A (11723789_a_at) / RFU FAM26E (11764081_at) / Fold change /veh FAM26E (11764081_at) / RFU ISYNA1 (11749810_s_at) / Fold change /veh ISYNA1 (11749810_s_at) / RFU ACY1 (11761880_at) / Fold change /veh ACY1 (11761880_at) / RFU 11764098_at / Fold change /veh 11764098_at / RFU SAMD14 (11745864_x_at) / Fold change /veh SAMD14 (11745864_x_at) / RFU NPB (11741838_a_at) / Fold change /veh NPB (11741838_a_at) / RFU TMPRSS6 (11731388_a_at) / Fold change /veh TMPRSS6 (11731388_a_at) / RFU KRTAP10-2 (11738614_at) / Fold change /veh KRTAP10-2 (11738614_at) / RFU ARHGAP8 /// PRR5-ARHGAP8 (11727945_x_at) / Fold change /veh ARHGAP8 /// PRR5-ARHGAP8 (11727945_x_at) / RFU KRTAP5-7 /// NADSYN1 (11734609_at) / Fold change /veh KRTAP5-7 /// NADSYN1 (11734609_at) / RFU RASL12 (11751679_a_at) / Fold change /veh RASL12 (11751679_a_at) / RFU CDKN2B (11736163_a_at) / Fold change /veh CDKN2B (11736163_a_at) / RFU PRF1 (11729649_at) / Fold change /veh PRF1 (11729649_at) / RFU, ZNF638 /// ZNF638-IT1 / Fold change vs veh, ZNF638 /// ZNF638-IT1 / RFU, PANK3 / Fold change vs veh, PANK3 / RFU, SH3YL1 / Fold change vs veh, SH3YL1 / RFU, ZEB2 / Fold change vs veh, ZEB2 / RFU, NRIP1 / Fold change vs veh, NRIP1 / RFU, PTTG1IP / Fold change vs veh, PTTG1IP / RFU, CAPN2 / Fold change vs veh, CAPN2 / RFU, MED14 / Fold change vs veh, MED14 / RFU, SNORA58 / Fold change vs veh, SNORA58 / RFU, C1orf63 / Fold change vs veh, C1orf63 / RFU, LRRFIP1 / Fold change vs veh, LRRFIP1 / RFU, NDUFAF7 / Fold change vs veh, NDUFAF7 / RFU, SLC12A2 / Fold change vs veh, SLC12A2 / RFU, IBTK / Fold change vs veh, IBTK / RFU, ESF1 / Fold change vs veh, ESF1 / Fold change vs veh, TMEM50B / RFU, TAOK1 / Fold change vs veh, TAOK1 / RFU, ACBD3 / Fold change vs veh, ACBD3 / RFU, TMA16 / Fold change vs veh, TMA16 / RFU, RWDD3 / Fold change vs veh, RWDD3 / RFU, BCAT1 / Fold change vs veh, BCAT1 / RFU, EDEM3 / Fold change vs veh, EDEM3 / RFU, TMEM33 / Fold change vs veh, TMEM33 / RFU, WDR75 / Fold change vs veh, WDR75 / RFU, AHCTF1 / Fold change vs veh, AHCTF1 / RFU, TFRC / Fold change vs veh, TFRC / RFU, ZDHHC17 / Fold change vs veh, ZDHHC17 / RFU, NOM1 / Fold change vs veh, NOM1 / RFU, ARL8B / Fold change vs veh, ARL8B / RFU, ZBTB11 / Fold change vs veh, ZBTB11 / RFU, TAMM41 / Fold change vs veh, TAMM41 / RFU, KIAA1704 /// LOC100996395 / Fold change vs veh, KIAA1704 /// LOC100996395 / RFU, ING1 / Fold change vs veh, ING1 / RFU, TRMT61B / Fold change vs veh, TRMT61B / RFU, FUBP3 / Fold change vs veh, FUBP3 / RFU, TP53 / Fold change vs veh, TP53 / RFU, TNKS2 / Fold change vs veh, TNKS2 / RFU, ZFP14 / Fold change vs veh, ZFP14 / RFU, ACTR2 / Fold change vs veh, ACTR2 / RFU, PPP3R1 / Fold change vs veh, PPP3R1 / RFU, PIK3R1 / Fold change vs veh, PIK3R1 / RFU, HNRNPA1 / Fold change vs veh, HNRNPA1 / RFU, RNF170 / Fold change vs veh, RNF170 / RFU, ZNF28 / Fold change vs veh, ZNF28 / RFU, RNGTT / Fold change vs veh, RNGTT / RFU, OGT / Fold change vs veh, OGT / RFU, BRD1 / Fold change vs veh, BRD1 / RFU, MARS / Fold change vs veh, MARS / RFU, ZNF655 / Fold change vs veh, ZNF655 / RFU, FAHD1 / Fold change vs veh, FAHD1 / RFU, BDP1 / Fold change vs veh, BDP1 / RFU, LRRCC1 / Fold change vs veh, LRRCC1 / RFU, ARID1A / Fold change vs veh, ARID1A / RFU, ZNF146 / Fold change vs veh, ZNF146 / RFU, ZNF330 / Fold change vs veh, ZNF330 / RFU, GPN3 / Fold change vs veh, GPN3 / RFU, C9orf123 / Fold change vs veh, C9orf123 / RFU, N4BP2L2 / Fold change vs veh, N4BP2L2 / RFU, ARFIP1 / Fold change vs veh, ARFIP1 / RFU, FAM179B / Fold change vs veh, FAM179B / RFU, BCL10 / Fold change vs veh, BCL10 / RFU, UHRF1BP1L / Fold change vs veh, UHRF1BP1L / RFU, BET1 / Fold change vs veh, BET1 / RFU, CNOT2 / Fold change vs veh, CNOT2 / RFU, ZNF268 / Fold change vs veh, ZNF268 / Fold change vs veh, ZNF507 / RFU, DGCR2 / Fold change vs veh, DGCR2 / RFU, WDSUB1 / Fold change vs veh, WDSUB1 / Fold change vs veh, HSP90B1 /// MIR3652 / RFU, ADSS / Fold change vs veh, ADSS / RFU, GK / Fold change vs veh, GK / RFU, ZNF148 / Fold change vs veh, ZNF148 / RFU, TAF9 / Fold change vs veh, TAF9 / RFU, SLC1A5 / Fold change vs veh, SLC1A5 / RFU, SLMO2 / Fold change vs veh, SLMO2 / RFU, ABCC4 / Fold change vs veh, ABCC4 / RFU, LOC101060439 /// RAP1B / Fold change vs veh, LOC101060439 /// RAP1B / RFU, RFX7 / Fold change vs veh, RFX7 / RFU, GTPBP10 / Fold change vs veh, GTPBP10 / RFU, CNEP1R1 / Fold change vs veh, CNEP1R1 / RFU, BIVM-ERCC5 /// ERCC5 / Fold change vs veh, BIVM-ERCC5 /// ERCC5 / RFU, ILF3 / Fold change vs veh, ILF3 / RFU 11762660_at / Fold change /veh 11762660_at / RFU VCAN (11757783_s_at) / Fold change /veh VCAN (11757783_s_at) / RFU DDX43 (11728927_at) / Fold change /veh DDX43 (11728927_at) / RFU KRT8 (11758188_x_at) / Fold change /veh KRT8 (11758188_x_at) / RFU NKD1 (11759106_at) / Fold change /veh NKD1 (11759106_at) / RFU SRD5A1 (11742802_a_at) / Fold change /veh SRD5A1 (11742802_a_at) / RFU TPSAB1 /// TPSB2 (11721975_s_at) / Fold change /veh TPSAB1 /// TPSB2 (11721975_s_at) / RFU GSTM3 (11746129_a_at) / Fold change /veh GSTM3 (11746129_a_at) / RFU IL23R (11737362_x_at) / Fold change /veh IL23R (11737362_x_at) / RFU TMEM51 (11727254_a_at) / Fold change /veh TMEM51 (11727254_a_at) / RFU PIWIL2 (11732686_x_at) / Fold change /veh PIWIL2 (11732686_x_at) / RFU ORM1 (11744905_x_at) / Fold change /veh ORM1 (11744905_x_at) / RFU CCDC152 (11743942_at) / Fold change /veh CCDC152 (11743942_at) / RFU ECM1 (11717891_a_at) / Fold change /veh ECM1 (11717891_a_at) / RFU IL23R (11748794_a_at) / Fold change /veh IL23R (11748794_a_at) / RFU TNFAIP8L3 (11732012_x_at) / Fold change /veh TNFAIP8L3 (11732012_x_at) / RFU MBOAT4 (11741988_at) / Fold change /veh MBOAT4 (11741988_at) / RFU 11764193_at / Fold change /veh 11764193_at / RFU TMEM53 (11763286_at) / Fold change /veh TMEM53 (11763286_at) / RFU MAGEB2 (11727129_at) / Fold change /veh MAGEB2 (11727129_at) / RFU TMEM200A (11744735_a_at) / Fold change /veh TMEM200A (11744735_a_at) / RFU CCDC152 (11751479_a_at) / Fold change /veh CCDC152 (11751479_a_at) / RFU FAM211A (11726209_a_at) / Fold change /veh FAM211A (11726209_a_at) / RFU RGS16 (11746705_a_at) / Fold change /veh RGS16 (11746705_a_at) / RFU VCAN (11755009_s_at) / Fold change /veh VCAN (11755009_s_at) / RFU RHOB (11743442_s_at) / Fold change /veh RHOB (11743442_s_at) / RFU RGS16 (11720943_a_at) / Fold change /veh RGS16 (11720943_a_at) / RFU RGS16 (11720944_at) / Fold change /veh RGS16 (11720944_at) / RFU, VPS4B / Fold change vs veh, VPS4B / RFU, CREB1 / Fold change vs veh, CREB1 / RFU, DNAJC13 / Fold change vs veh, DNAJC13 / RFU, GNAQ / Fold change vs veh, GNAQ / RFU, CDK5R1 / Fold change vs veh, CDK5R1 / RFU, ZRANB3 / Fold change vs veh, ZRANB3 / RFU, CUL4A / Fold change vs veh, CUL4A / RFU, CCNY / Fold change vs veh, CCNY / RFU, UFL1 / Fold change vs veh, UFL1 / RFU, COG3 / Fold change vs veh, COG3 / RFU, DIAPH2 / Fold change vs veh, DIAPH2 / RFU, SKA2 / Fold change vs veh, SKA2 / RFU, AFF3 / Fold change vs veh, AFF3 / RFU, LMF1 / Fold change vs veh, LMF1 / RFU, IPO11 / Fold change vs veh, IPO11 / RFU, DFFB / Fold change vs veh, DFFB / RFU, FOXP1 / Fold change vs veh, FOXP1 / RFU, CARD8 / Fold change vs veh, CARD8 / RFU, STRN3 / Fold change vs veh, STRN3 / RFU, ADK / Fold change vs veh, ADK / RFU, RASSF2 / Fold change vs veh, RASSF2 / RFU, WIPF1 / Fold change vs veh, WIPF1 / RFU, LARP1B / Fold change vs veh, LARP1B / RFU, RASA1 / Fold change vs veh, RASA1 / RFU, RB1 / Fold change vs veh, RB1 / RFU, PPFIA1 / Fold change vs veh, PPFIA1 / RFU, MAT2A / Fold change vs veh, MAT2A / RFU, CCT5 / Fold change vs veh, CCT5 / RFU, WDR92 / Fold change vs veh, WDR92 / RFU, CUX1 / Fold change vs veh, CUX1 / RFU, TTC7A / Fold change vs veh, TTC7A / RFU, TMEM135 / Fold change vs veh, TMEM135 / RFU, DEPTOR / Fold change vs veh, DEPTOR / RFU, CPM / Fold change vs veh, CPM / RFU, DNAJB6 / Fold change vs veh, DNAJB6 / RFU, CACNA2D3 / Fold change vs veh, CACNA2D3 / RFU, DTX4 / Fold change vs veh, DTX4 / RFU, TFCP2 / Fold change vs veh, TFCP2 / RFU, GMCL1 /// GMCL1P1 / Fold change vs veh, GMCL1 /// GMCL1P1 / RFU, AEBP2 / Fold change vs veh, AEBP2 / RFU, SNHG1 /// SNORD22 /// SNORD25 /// SNORD26 /// SNORD27 /// SNORD28 /// SNORD29 /// SNORD31 / Fold change vs veh, SNHG1 /// SNORD22 /// SNORD25 /// SNORD26 /// SNORD27 /// SNORD28 /// SNORD29 /// SNORD31 / Fold change (Aza/veh), C12orf56 (ProbeSet 11735607_a_at) / Fold change (ACY-1035/veh), C12orf56 (ProbeSet 11735607_a_at) / Fold change (Aza/veh), FGFR1OP (ProbeSet 11751329_s_at) / Fold change (ACY-1035/veh), FGFR1OP (ProbeSet 11751329_s_at) / Fold change (Aza/veh), VPS36 (ProbeSet 11739960_a_at) / Fold change (ACY-1035/veh), VPS36 (ProbeSet 11739960_a_at) / RFU SYPL1 (11715823_x_at) / Fold change /veh SYPL1 (11715823_x_at) / RFU IGFBP7 (11715501_s_at) / Fold change /veh IGFBP7 (11715501_s_at) / RFU REEP3 (11722064_at) / Fold change /veh REEP3 (11722064_at) / RFU IGLL1 (11728026_x_at) / Fold change /veh IGLL1 (11728026_x_at): dose or concentration left out as unconfirmed
Details: ProbeSet 11753616_s_at; LIST B

## Nc1ccc(-c2cccs2)cc1NC(=O)c1ccc2c(c1)cc(C1CC1)n2CCN1CCOCC1 [ACY-1035]
  RFU, ARL8B: 236.78 RFU
